The source of these data is patent US8895549B2, “Aminoalcohol substituted 2,3-dihydroimidazo[1,2-c]quinazoline derivatives useful for treating hyper-proliferative disorders and diseases associated with angiogenesis” (Bayer Intellectual Property GmbH, priority 2010, dated 2014).

Experiment [1] concerns the target PI3Kα (complex of human p110α and human p85α) (Homo sapiens (Human), UniProt P42336). The experiment in a line: PI3Kα kinase assay (HTRF-based PI3K inhibition assay).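 For all read-outs here: PIP3 product detected by HTRF, reading resonance energy transfer from Europium-labeled anti-GST antibody to Streptavidin-APC, as displacement of biotinylated PIP3 tracer from the GST-PH domain complex.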 The class given is biochemical. As to conditions: for inhibition at 0.93 µM: 0.93 μM compound, read-out: PI3K alpha average % Inhibition at 0.93 μM; for IC50: 10 μM ATP, 10 μM PIP2, 20 min at 22° C., read-out: average IC50 in the PI3K alpha biochemical assay. A general note: In TR-FRET formats the signal depends on donor and acceptor labels being close together.
Excerpt: (§1) Determination of % Inhibition and IC50 Values of Compounds in PI3Kα Kinase Assay
PI3Kα inhibitory activity of compounds of the present invention was quantified employing the HTRF-based PI3K inhibition assay as described below.
(§2) As reagents for the kinase reaction itself and the quantification of the reaction product, the PI3-Kinase HTRF Assay kit from Millipore (#33-017) was used. With this kit the phosphatidylinositol 3,4,5-trisphosphate (PIP3) generated in the kinase reaction is detected by displacement of a biotinylated ligand from an energy transfer complex consisting of a Europium-labeled anti-GST monoclonal antibody, a GST-tagged PH domain, biotinylated PIP3 and Streptavidin-Allophycocyanin (APC).
For the assay 50 nL of a 80-fold concentrated solution of the test compound in DMSO was pipetted into a black low volume 384-well microtiter plate (Greiner Bio-One, Frickenhausen, Germany), 3 μL of a solution of PI3Kα and phosphatidylinositol-4,5-bisphosphate (PIP2, 13.8 μM=> final conc. in 4 μl reaction volume=10 μM) in 1× reaction buffer (exact composition not disclosed by the vendor) were added and the mixture was incubated for 15 min at 22° C. to allow pre-binding of the test compounds to the enzyme before the start of the kinase reaction. The amount of PI3Kα was chosen to have the enzyme reaction in the linear range and depended on the activity of the individual lot, typical concentrations in assay were in the range of 90 ng/mL. Then the kinase reaction was started by the addition of 1 μL of a solution of adenosine triphosphate (ATP, 40 μM=> final conc. in the 4 μL assay volume is 10 μM) in reaction buffer and the resulting mixture was incubated for a reaction time of 20 min at 22° C.
The reaction was stopped by the addition of 1 μL of an stop solution (containing the biotinylated PIP3 used as a tracer), then 1 μL detection mix (containing a Europium-labeled anti-GST monoclonal antibody, a GST-tagged PH domain, and Streptavidin-Allophycocyanin) was added and resulting mixture was incubated 3 h at 22° C. to allow the formation of complexes between the detection reagents and either the PIP3 generated in the kinase reaction, or the biotinylated PIP3 added with the stop solution. Subsequently, the amount of energy transfer complex consisting of a Europium-labeled anti-GST monoclonal antibody, a GST-tagged PH domain, biotinylated PIP3 and Streptavidin-Allophycocyanin (APC) was evaluated by measurement of the resonance energy transfer from the Europium-labeled anti-GST monoclonal antibody to the Streptavidin-Allophycocyanin. Therefore, the fluorescence emissions at 620 nm and 665 nm after excitation at 350 nm were measured using a TR-FRET reader, e.g., a Pherastar (BMG Labtechnologies, Offenburg, Germany) or a Viewlux (Perkin-Elmer). The ratio of the emissions at 665 nm and at 622 nm was taken as the measure for the amount of biotinylated PIP3 bound to the GST-tagged PH domain, which is negatively correlated with the amount of PIP3 generated.

In experiment [2] the target is PI3Kβ (complex of human p110β and human p85α) (Homo sapiens (Human), UniProt P42338). The experiment in a line: PI3Kβ kinase assay (HTRF-based PI3K inhibition assay).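 For all read-outs here: Kinase-made PIP3 detected by HTRF, displacing biotinylated PIP3 tracer from a complex of Europium anti-GST antibody, GST-fused PH domain and Streptavidin-APC, read as Europium-to-APC energy transfer.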 The experiment is classed as biochemical. As to conditions: for inhibition at 0.93 µM: 0.93 μM compound, read-out: PI3K beta average % Inhibition at 0.93 μM; for IC50: 10 μM ATP, 10 μM PIP2, 20 min at 22° C., read-out: average IC50 in the PI3K beta biochemical assay; for PI3K beta average IC50/PI3K alpha average IC50: ratio of beta IC50 to alpha IC50.
PI3Kβ (complex of human p110β and human p85α), sequence (P42338 whole entry, the tested form may be a part): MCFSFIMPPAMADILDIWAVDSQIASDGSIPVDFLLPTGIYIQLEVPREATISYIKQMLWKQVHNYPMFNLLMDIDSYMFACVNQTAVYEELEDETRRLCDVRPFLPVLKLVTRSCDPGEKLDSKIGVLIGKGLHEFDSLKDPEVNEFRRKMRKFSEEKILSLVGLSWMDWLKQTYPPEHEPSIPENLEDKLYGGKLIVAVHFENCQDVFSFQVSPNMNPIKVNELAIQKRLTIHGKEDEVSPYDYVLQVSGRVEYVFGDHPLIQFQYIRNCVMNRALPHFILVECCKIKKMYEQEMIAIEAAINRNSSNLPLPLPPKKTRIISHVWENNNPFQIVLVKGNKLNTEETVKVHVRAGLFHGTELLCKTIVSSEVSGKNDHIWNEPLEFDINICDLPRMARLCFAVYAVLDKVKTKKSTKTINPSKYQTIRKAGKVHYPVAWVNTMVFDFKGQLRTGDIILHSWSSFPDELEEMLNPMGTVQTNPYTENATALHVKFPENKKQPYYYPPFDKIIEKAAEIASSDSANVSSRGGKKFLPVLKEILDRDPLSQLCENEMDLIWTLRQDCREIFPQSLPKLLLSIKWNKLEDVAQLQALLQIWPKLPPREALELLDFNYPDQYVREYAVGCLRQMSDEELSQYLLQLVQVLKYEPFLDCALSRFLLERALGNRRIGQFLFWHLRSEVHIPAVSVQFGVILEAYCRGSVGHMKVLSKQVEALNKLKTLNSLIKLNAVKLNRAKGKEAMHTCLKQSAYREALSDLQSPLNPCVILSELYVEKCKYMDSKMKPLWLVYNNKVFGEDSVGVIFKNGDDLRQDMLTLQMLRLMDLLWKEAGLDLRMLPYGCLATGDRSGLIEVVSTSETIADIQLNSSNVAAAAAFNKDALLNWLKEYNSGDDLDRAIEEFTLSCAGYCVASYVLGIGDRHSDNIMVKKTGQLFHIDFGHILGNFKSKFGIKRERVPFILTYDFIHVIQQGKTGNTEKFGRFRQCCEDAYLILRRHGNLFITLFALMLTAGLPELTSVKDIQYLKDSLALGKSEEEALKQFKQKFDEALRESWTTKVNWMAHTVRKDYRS
PI3Kβ (complex of human p110β and human p85α), sequence (P27986 whole entry partner, the tested form may be a part): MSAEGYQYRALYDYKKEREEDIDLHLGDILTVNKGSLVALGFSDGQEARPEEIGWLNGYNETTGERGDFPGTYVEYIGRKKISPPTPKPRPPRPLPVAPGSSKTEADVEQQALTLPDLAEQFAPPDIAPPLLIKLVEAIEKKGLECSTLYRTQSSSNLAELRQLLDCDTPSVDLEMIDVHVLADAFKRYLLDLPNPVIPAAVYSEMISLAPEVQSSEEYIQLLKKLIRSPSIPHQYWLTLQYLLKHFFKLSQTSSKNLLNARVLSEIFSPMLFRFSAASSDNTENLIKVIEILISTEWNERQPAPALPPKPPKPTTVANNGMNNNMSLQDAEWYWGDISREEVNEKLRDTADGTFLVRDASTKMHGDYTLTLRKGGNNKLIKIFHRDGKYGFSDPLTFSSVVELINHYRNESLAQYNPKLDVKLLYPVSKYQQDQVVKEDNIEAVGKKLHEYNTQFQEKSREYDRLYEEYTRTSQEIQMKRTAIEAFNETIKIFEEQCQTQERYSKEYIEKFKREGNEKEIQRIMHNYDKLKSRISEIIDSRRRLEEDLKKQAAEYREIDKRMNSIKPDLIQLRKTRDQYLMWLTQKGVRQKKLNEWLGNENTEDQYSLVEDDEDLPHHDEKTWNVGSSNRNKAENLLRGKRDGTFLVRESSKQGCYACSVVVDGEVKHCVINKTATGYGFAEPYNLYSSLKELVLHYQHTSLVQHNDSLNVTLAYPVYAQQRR
Excerpt: as §1
PI3Kα inhibitory activity of compounds of the present invention was quantified employing the HTRF based PI3K inhibition assay as described below.
as §2
For the assay 50 nL of a 80-fold concentrated solution of the test compound in DMSO was pipetted into a black low volume 384-well microtiter plate (Greiner Bio-One, Frickenhausen, Germany), 3 μl of a solution of PI3Kβ and phosphatidylinositol-4,5-bisphosphate (PIP2, 13.8 μM=> final conc. in 4 μl reaction volume=10 μM) in 1× reaction buffer (exact composition not disclosed by the vendor) were added and the mixture was incubated for 15 min at 22° C. to allow pre-binding of the test compounds to the enzyme before the start of the kinase reaction. The amount of PI3Kβ was chosen to have the enzyme reaction in the linear range and depended on the activity of the individual lot, typical concentrations in assay were in the range of 120 ng/mL. Then the kinase reaction was started by the addition of 1 μL of a solution of adenosine triphosphate (ATP, 40 μM=> final conc. in the 4 μl assay volume is 10 μM) in reaction buffer and the resulting mixture was incubated for a reaction time of 20 min at 22° C.
The reaction was stopped by the addition of 1 μL of an stop solution (containing the biotinylated PIP3 used as a tracer). Then 1 μL detection mix (containing a Europium-labeled anti-GST monoclonal antibody, a GST-tagged PH domain, and Streptavidin-Allophycocyanin) was added and resulting mixture was incubated for 3 h at 22° C. to allow the formation of complexes between the detection reagents and either the PIP3 generated in the kinase reaction, or the biotinylated PIP3 added with the stop solution. Subsequently the amount of energy transfer complex consisting of a Europium-labeled anti-GST monoclonal antibody, a GST-tagged PH domain, biotinylated PIP3 and Streptavidin-Allophycocyanin (APC) was evaluated by measurement of the resonance energy transfer from the Europium-labeled anti-GST monoclonal antibody to the Streptavidin-Allophycocyanin. Therefore, the fluorescence emissions at 620 nm and 665 nm after excitation at 350 nm were measured using a TR-FRET reader, e.g., a Pherastar (BMG Labtechnologies, Offenburg, Germany) or a Viewlux (Perkin-Elmer). The ratio of the emissions at 665 nm and at 622 nm were taken as the measure for the amount of biotinylated PIP3 bound to the GST-tagged PH domain, which is negatively correlated with the amount of PIP3 generated.

PI3Kα (complex of human p110α and human p85α), sequence (P42336 whole entry, the tested form may be a part): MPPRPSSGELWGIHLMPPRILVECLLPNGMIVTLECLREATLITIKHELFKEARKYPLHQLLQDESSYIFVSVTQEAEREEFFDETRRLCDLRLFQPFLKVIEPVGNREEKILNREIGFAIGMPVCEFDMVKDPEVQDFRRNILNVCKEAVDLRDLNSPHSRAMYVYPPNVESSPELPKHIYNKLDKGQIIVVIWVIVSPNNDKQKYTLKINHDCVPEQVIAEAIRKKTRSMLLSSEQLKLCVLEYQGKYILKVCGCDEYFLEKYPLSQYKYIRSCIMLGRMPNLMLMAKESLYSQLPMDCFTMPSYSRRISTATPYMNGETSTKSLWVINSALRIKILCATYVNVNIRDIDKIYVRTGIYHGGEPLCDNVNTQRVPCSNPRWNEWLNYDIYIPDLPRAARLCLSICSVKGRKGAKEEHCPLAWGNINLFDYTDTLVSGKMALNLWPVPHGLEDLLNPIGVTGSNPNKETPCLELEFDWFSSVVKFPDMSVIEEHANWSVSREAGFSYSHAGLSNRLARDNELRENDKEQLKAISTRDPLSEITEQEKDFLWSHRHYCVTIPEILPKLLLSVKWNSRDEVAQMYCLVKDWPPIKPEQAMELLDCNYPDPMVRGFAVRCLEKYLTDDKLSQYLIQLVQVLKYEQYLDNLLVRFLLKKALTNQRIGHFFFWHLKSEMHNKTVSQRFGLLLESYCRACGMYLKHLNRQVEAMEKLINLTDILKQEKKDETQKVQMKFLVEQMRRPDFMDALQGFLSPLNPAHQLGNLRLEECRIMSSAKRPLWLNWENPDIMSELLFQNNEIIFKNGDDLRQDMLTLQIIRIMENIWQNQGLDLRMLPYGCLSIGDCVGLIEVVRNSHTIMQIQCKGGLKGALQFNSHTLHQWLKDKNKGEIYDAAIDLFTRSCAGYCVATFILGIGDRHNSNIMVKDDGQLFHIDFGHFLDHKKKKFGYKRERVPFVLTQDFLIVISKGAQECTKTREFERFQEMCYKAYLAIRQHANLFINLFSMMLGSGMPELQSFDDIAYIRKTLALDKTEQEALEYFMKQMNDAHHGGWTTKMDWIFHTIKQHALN
PI3Kα (complex of human p110α and human p85α), sequence (P27986 whole entry partner, the tested form may be a part): as the sequence (P27986 whole entry partner, the tested form may be a part) above

One may read the inhibition as the relative decrease from the control value, in per cent. With `COc1c(OCC(O)CN2CCOCC2)ccc2c1N=C(NC(=O)c1cccnc1)N1CCN=C21` (centres unmarked) [Comparative Example 1, N-{8-[2-hydroxy-3-(morpholin-4-yl)propoxy]-7-methoxy-2,3-dihydroimidazo[1,2-c]quinazolin-5-yl}pyridine-3-carboxamide, reference compound], the figures for the inhibition at 0.93 µM in experiment [1] and in experiment [2] were 97.4% and 92.1%, respectively.
The matching figures for `COc1c(OC[C@H](O)CN2CCOCC2)ccc2c1N=C(NC(=O)c1cccnc1)N1CCN=C21` [Example 2, N-(8-{[(2R)-2-hydroxy-3-(morpholin-4-yl)propyl]oxy}-7-methoxy-2,3-dihydroimidazo[1,2-c]quinazolin-5-yl)pyridine-3-carboxamide]: 97.6% and 94.4%.
The matching figures for `COc1c(OC[C@@H](O)CN2CCOCC2)ccc2c1N=C(NC(=O)c1cccnc1)N1CCN=C21` [Example 3, N-(8-{[(2S)-2-hydroxy-3-(morpholin-4-yl)propyl]oxy}-7-methoxy-2,3-dihydroimidazo[1,2-c]quinazolin-5-yl)pyridine-3-carboxamide]: 103% and 92.9%.
For orientation: IC50 means the point on the concentration scale where inhibition reaches its midpoint. `COc1c(OC[C@H](O)CN2C[C@@H](C)O[C@@H](C)C2)ccc2c1N=C(NC(=O)c1cccnc1)N1CCN=C21` [Example 4, N-[8-({(2R)-3-[(2R,6S)-2,6-dimethylmorpholin-4-yl]-2-hydroxypropyl}oxy)-7-methoxy-2,3-dihydroimidazo[1,2-c]quinazolin-5-yl]pyridine-3-carboxamide]: in experiment [1], the inhibition at 0.93 µM was determined as 99.8% and the IC50 fell in the range of 0.01 to 0.05 µM. Further, in experiment [2], the inhibition at 0.93 µM is 96.4%, the IC50 was > 0.05 µM and the “PI3K beta average IC50/PI3K alpha average IC50” value is 4.85.
On to `COc1c(OC[C@H](O)CN2CC3CCC(C2)O3)ccc2c1N=C(NC(=O)c1cccnc1)N1CCN=C21` [Example 5, N-(8-{[(2R)-2-hydroxy-3-(8-oxa-3-azabicyclo[3.2.1]oct-3-yl)propyl]oxy}-7-methoxy-2,3-dihydroimidazo[1,2-c]quinazolin-5-yl)pyridine-3-carboxamide], for which, in experiment [1], the inhibition at 0.93 µM amounted to 101% and the IC50 is < 0.01 µM. Moreover, in experiment [2], the inhibition at 0.93 µM turned out to be 104%, the half-inhibitory concentration (IC50) lay in the range of 0.01 to 0.05 µM and the “PI3K beta average IC50/PI3K alpha average IC50” value is 3.68.
Take `COc1c(OCC(O)CN2CCSCC2)ccc2c1N=C(NC(=O)c1cccnc1)N1CCN=C21` (centres unmarked) [Example 6, N-{8-[2-hydroxy-3-(thiomorpholin-4-yl)propoxy]-7-methoxy-2,3-dihydroimidazo[1,2-c]quinazolin-5-yl}pyridine-3-carboxamide]: in experiment [1], the inhibition at 0.93 µM came to 91.2% and the IC50 is < 0.01 µM. In addition, in experiment [2], the inhibition at 0.93 µM is 84.1% and the IC50 is > 0.05 µM.
For `COc1c(OC[C@H](O)CN2CCC2)ccc2c1N=C(NC(=O)c1cccnc1)N1CCN=C21` [Example 7, N-(8-{[(2R)-3-(azetidin-1-yl)-2-hydroxypropyl]oxy}-7-methoxy-2,3-dihydroimidazo[1,2-c]quinazolin-5-yl)pyridine-3-carboxamide], in experiment [1], the inhibition at 0.93 µM amounted to 99.5% and the IC50 fell in the range of 0.01 to 0.05 µM. In addition, in experiment [2], the inhibition at 0.93 µM came to 97.3%, the IC50 is > 0.05 µM and the “PI3K beta average IC50/PI3K alpha average IC50” value is given as 2.22.
As for `COc1c(OC[C@H](O)CN2CCCC2)ccc2c1N=C(NC(=O)c1cccnc1)N1CCN=C21` [Example 8, N-(8-{[(2R)-2-hydroxy-3-(pyrrolidin-1-yl)propyl]oxy}-7-methoxy-2,3-dihydroimidazo[1,2-c]quinazolin-5-yl)pyridine-3-carboxamide], in experiment [1], the inhibition at 0.93 µM came to 102% and the IC50 is < 0.01 µM. In experiment [2], the inhibition at 0.93 µM was 101%, the IC50 lay within 0.01 to 0.05 µM and the “PI3K beta average IC50/PI3K alpha average IC50” value came out at 2.62.
The matching figures for `COc1c(OC[C@H](O)CN2CCCCC2)ccc2c1N=C(NC(=O)c1cccnc1)N1CCN=C21` [Example 9, N-(8-{[(2R)-2-Hydroxy-3-(piperidin-1-yl)propyl]oxy}-7-methoxy-2,3-dihydroimidazo[1,2-c]quinazolin-5-yl)pyridine-3-carboxamide]: 104%, < 0.01 µM, 97.2%, 0.01 to 0.05 µM and 2.02.
The corresponding values for `COc1c(OCC(O)CN(C)C)ccc2c1N=C(NC(=O)c1cccnc1)N1CCN=C21` (centres unmarked) [Example 10, N-{8-[3-(dimethylamino)-2-hydroxypropoxy]-7-methoxy-2,3-dihydroimidazo[1,2-c]quinazolin-5-yl}pyridine-3-carboxamide] are 96.3%, < 0.01 µM, 98.1%, 0.01 to 0.05 µM and 5.47.
The matching figures for `COc1c(OC[C@H](O)CN(C)C)ccc2c1N=C(NC(=O)c1cccnc1)N1CCN=C21` [Example 11, N-(8-{[(2R)-3-(dimethylamino)-2-hydroxypropyl]oxy}-7-methoxy-2,3-dihydroimidazo[1,2-c]quinazolin-5-yl)pyridine-3-carboxamide]: 82%, 0.01 to 0.05 µM, 95.5%, 0.01 to 0.05 µM and 1.60.
Take `COc1c(OC[C@H](O)CN(C(C)C)C(C)C)ccc2c1N=C(NC(=O)c1cccnc1)N1CCN=C21` [Example 12, N-(8-{[(2R)-3-(dipropan-2-ylamino)-2-hydroxypropyl]oxy}-7-methoxy-2,3-dihydroimidazo[1,2-c]quinazolin-5-yl)pyridine-3-carboxamide]: in experiment [1], the inhibition at 0.93 µM worked out at 104% and the IC50 is < 0.01 µM. For the same molecule, in experiment [2], the inhibition at 0.93 µM came to 115%, the half-maximal inhibitory concentration (IC50) lay within 0.01 to 0.05 µM and the “PI3K beta average IC50/PI3K alpha average IC50” value stood at 4.74.
As for `COc1c(OC[C@H](O)CN2CCOCC2)ccc2c1N=C(NC(=O)c1cccnc1C)N1CCN=C21` [Example 14, N-(8-{[(2R)-2-Hydroxy-3-(morpholin-4-yl)propyl]oxy}-7-methoxy-2,3-dihydroimidazo[1,2-c]quinazolin-5-yl)-2-methylpyridine-3-carboxamide], in experiment [1], the inhibition at 0.93 µM is 104% and the IC50 is < 0.01 µM. In experiment [2], the inhibition at 0.93 µM was 102%, the IC50 fell in the range of 0.01 to 0.05 µM and the “PI3K beta average IC50/PI3K alpha average IC50” value was found to be 3.09.
Take `COc1c(OC[C@H](O)CN2CCC2)ccc2c1N=C(NC(=O)c1cccnc1C)N1CCN=C21` [Example 16, N-(8-{[(2R)-3-(Azetidin-1-yl)-2-hydroxypropyl]oxy}-7-methoxy-2,3-dihydroimidazo[1,2-c]quinazolin-5-yl)-2-methylpyridine-3-carboxamide]: in experiment [1], the inhibition at 0.93 µM was found to be 109% and the IC50 was in the range of 0.01 to 0.05 µM. In experiment [2], the inhibition at 0.93 µM came to 87.7%, the IC50 was 0.01 to 0.05 µM and the “PI3K beta average IC50/PI3K alpha average IC50” value is on record as 3.94.
`COc1c(OC[C@H](O)CN2C[C@@H](C)O[C@@H](C)C2)ccc2c1N=C(NC(=O)c1cccnc1C)N1CCN=C21` [Example 17, N-[8-({(2R)-3-[(2R,6S)-2,6-dimethylmorpholin-4-yl]-2-hydroxypropyl}oxy)-7-methoxy-2,3-dihydroimidazo[1,2-c]quinazolin-5-yl]-2-methylpyridine-3-carboxamide]: in experiment [1], the inhibition at 0.93 µM stood at 109% and the IC50 was < 0.01 µM. In addition, in experiment [2], the inhibition at 0.93 µM is 87.2%, the IC50 fell in the range of 0.01 to 0.05 µM and the “PI3K beta average IC50/PI3K alpha average IC50” value is 5.36.
The matching figures for `COc1c(OC[C@H](O)CN2CCCC2)ccc2c1N=C(NC(=O)c1cccnc1C)N1CCN=C21` [Example 18, N-(8-{[(2R)-2-hydroxy-3-(pyrrolidin-1-yl)propyl]oxy}-7-methoxy-2,3-dihydroimidazo[1,2-c]quinazolin-5-yl)-2-methylpyridine-3-carboxamide]: 96.9%, < 0.01 µM, 103%, 0.01 to 0.05 µM and 3.90.
The matching figures for `COc1c(OC[C@H](O)CN2CCCCC2)ccc2c1N=C(NC(=O)c1cccnc1C)N1CCN=C21` [Example 19, N-(8-{[(2R)-2-Hydroxy-3-(piperidin-1-yl)propyl]oxy}-7-methoxy-2,3-dihydroimidazo[1,2-c]quinazolin-5-yl)-2-methylpyridine-3-carboxamide]: 103%, < 0.01 µM, 91.2%, 0.01 to 0.05 µM and 2.78.
The matching figures for `COc1c(OC[C@H](O)CN(C(C)C)C(C)C)ccc2c1N=C(NC(=O)c1cccnc1C)N1CCN=C21` [Example 20, N-(8-{[(2R)-3-(dipropan-2-ylamino)-2-hydroxypropyl]oxy}-7-methoxy-2,3-dihydroimidazo[1,2-c]quinazolin-5-yl)-2-methylpyridine-3-carboxamide]: 102%, < 0.01 µM, 98.6%, 0.01 to 0.05 µM and 4.20.
With `COc1c(OCC(O)CN2CCOCC2)ccc2c1N=C(NC(=O)c1ccc(N)nc1)N1CCN=C21` (centres unmarked) [Example 21, 6-amino-N-{8-[2-hydroxy-3-(morpholin-4-yl)propoxy]-7-methoxy-2,3-dihydroimidazo[1,2-c]quinazolin-5-yl}pyridine-3-carboxamide], the IC50 in experiment [1] was < 0.01 µM. Also, in experiment [2], the IC50 lay within 0.01 to 0.05 µM and the “PI3K beta average IC50/PI3K alpha average IC50” value worked out at 9.37.
